Patent US8198231B2, “Compositions and methods for treatment of staphylococcal infection while suppressing formation of antibiotic-resistant strains” (priority 1999, dated 2012)

Tests used:
[1] = tested on: strains 27619, Col, 27227 and VA348; experiment: Checkerboard susceptibility testing of lysostaphin and oxacillin; format: cell-based; settings: oxacillin in concentrations up to 1 μg/ml; all strains tested
Method: Checkerboard susceptibility testing was conducted to determine whether simultaneous administration of lysostaphin and oxacillin (a β-lactam) would be effective in suppressing the development of resistance. Oxacillin concentrations varied between 0.0156 μg/ml and 1 μg/ml. Lysostaphin concentrations varied between 0.00048 and 0.9 μg/ml. Four strains were tested for evidence of synergy between lysostaphin and oxacillin; 27619, Col, 27227 and VA348.

[2] = tested on: staphylococcal infected rabbits; experiment: Rabbit model of aortic valve endocarditis; format: in vivo
From the text: The simultaneous treatment of staphylococcal infection with suppression of resistant strain formation is an exciting and widely useful invention nowhere predicted in the art. This invention offers the possibility of treating staphylococcal infections while suppressing the generation of strains resistant to any or all active agents administered.

[3] = lysostaphin 1 mg/kg bid (low dose), alone or together with nafcillin

Substance: lysostaphin
- MIC of lysostaphin in the presence of oxacillin [1]: unchanged
- Bacterial counts in kidneys [2, 3]: high counts
- Bacterial counts in vegetations [2, 3]: high counts
- Recovery of resistant colonies/strains [2, 3]: recovery of a number of resistant colonies
- Minimum dose for sterilization ([2]; lysostaphin alone): 5 mg/kg tid
